Measured values taken from patent publication US20250230138A1, “COMPOUNDS HAVING A T-STRUCTURE FORMED BY AT LEAST FOUR CYCLES FOR USE IN THE TREATMENT OF CANCER AND OTHER INDICATIONS” (TheRas, Inc., priority 2022, published 2025).
Where two headings read alike, the source gives them in different places.

Legend:
[1] = target: Cys242 in human PIK3CA (157-299) (Homo sapiens (Human), UniProt P42336); assay: Covalent modification assay using MALDI-TOF MS; format: biochemical; details: 4 h reaction time point
Cys242 in human PIK3CA (157-299), sequence (P42336 157-299): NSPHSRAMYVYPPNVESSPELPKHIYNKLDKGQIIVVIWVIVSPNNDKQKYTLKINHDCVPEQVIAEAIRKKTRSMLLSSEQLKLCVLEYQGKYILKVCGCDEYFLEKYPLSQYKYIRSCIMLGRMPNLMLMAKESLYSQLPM
Procedure, shortened: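 PIK3CA (157-299) at 3.33 μM or 1 μM in 20 mM HEPES, 150 mM NaCl, 2 mM MgCl2, pH 7.3 was incubated with compound (from 10 mM DMSO stocks) in the dark at room temperature for 15 min, 30 min, 2 h or 4 h. Linear-mode MALDI-TOF peak heights gave percent modification.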

pAKT in BT474 cells = assay: Cell-based pAKT HTRF assay in BT474 cells; details: BT474 cells, 4 hr incubation, read-out: pAKT inhibition IC50 in BT474 cells
Procedure, shortened: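 Compound titration: 3 μM downward in 3-fold steps, nine points, 4 hr on cells. Detection: lysis, then d2 plus Eu Cryptate antibody mix, room-temperature incubation of 4–24 h, and time-resolved fluorescence read at 615 nm.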

[2] = 3.33 μM protein target, 1:7.5 protein to compound ratio (compounds 1-852)
[3] = 1 μM protein target, 1:5 protein to compound ratio (compounds 853-1279)

Compound | IC50 (pAKT in BT474 cells; Compounds 10-999) [nM] | IC50 (pAKT in BT474 cells; Compounds 1000-1279) [nM] | IC50 (pAKT in BT474 cells; Homo sapiens, BT-474, Compounds 10-999) [nM] | % of modification [1, 2] | % of modification [1, 3]
C=CC(=O)N1CCc2nc(-c3nc(-c4ccc5c(c4)CCN(C)C5)c4ccsc4c3-c3c(F)cc(F)cc3OC(F)F)sc2C1 [Compound 475] | > 3000 |  |  | B (50%<percent of modification <75%) | 
C=CC(=O)N1Cc2cc(-c3nc(-c4ccc5c(c4)CCN(C)C5)c4ccsc4c3-c3c(F)cc(F)cc3OCCOC)nn2C(C)C1 (stereo not shown) [Compound 558] | 100 to 1000 |  |  | D (percent of modification <25%) | 
C=CC(=O)N1CCn2nc(-c3nc(-c4ccc5c(c4)CN(C)C5=O)c4ccsc4c3-c3c(F)cc(F)cc3OCCO)cc2C1C (stereo not shown) [Compound 875] | < 100 |  |  |  | A (percent of modification of PIK3CA protein ≥75%)
C=CC(=O)N1CCn2nc(-c3nc(-c4ccc5c(c4)CNC(=O)C5)c4ccsc4c3-c3c(F)cc(F)cc3OCCOC)cc2C1C (stereo not shown) [Compound 926] | < 100 |  |  |  | A (percent of modification of PIK3CA protein ≥75%)
C=CC(=O)N1CCn2nc(-c3nc(-c4cnn(C)c4)c4ccsc4c3-c3c(F)cc(F)cc3OCCO)cc2C1C (stereo not shown) [Compound 538] | < 100 |  |  | A (percent of modification of PIK3CA protein ≥75%) | 
C=CC(=O)N1CCn2nc(-c3nc(-c4cnn(C)c4)c4ccsc4c3-c3ccc(F)cc3OC(C)C)cc2C1C (stereo not shown) [Compound 394] | < 100 |  |  | A (percent of modification of PIK3CA protein ≥75%) | 
C=CC(=O)N1Cc2cc(-c3nc(-c4cnc5c(cnn5C)c4)c4ccsc4c3-c3c(F)cc(F)cc3OCCOC)nn2C[C@H]1C [Compound 797] | < 100 |  |  | A (percent of modification of PIK3CA protein ≥75%) | 
C=CC(=O)N1Cc2cc(-c3nc(-c4ccc5c(c4)CCN(C)C5)c4ccsc4c3-c3c(F)cc(F)cc3OC(C)C)nn2C(C)C1 (stereo not shown) [Compound 556] | < 100 |  |  | A (percent of modification of PIK3CA protein ≥75%) | 
C=CC(=O)N1CC(n2cc(-c3nc(-c4ncn(C)n4)c4ccsc4c3-c3ccc(F)cc3OCCOC)cn2)C1 [Compound 85] | 100 to 1000 |  |  | A (percent of modification of PIK3CA protein ≥75%) | 
C=CC(=O)N1Cc2cc(-c3nc(-c4ccc5cn(C)nc5c4)c4ccsc4c3-c3c(F)cc(F)cc3OC[C@@H](C)O)nn2C[C@H]1C [Compound 752] | < 100 |  |  | A (percent of modification of PIK3CA protein ≥75%) | 
C=C(F)C(=O)N1CCn2nc(-c3nc(-c4ccc5c(c4)CNC5=O)c4ccsc4c3-c3ccc(Cl)cc3OC(C)C)cc2C1 [Compound 361] | < 100 |  |  | A (percent of modification of PIK3CA protein ≥75%) | 
C=CC(=O)N1CCc2nc(-c3nc(-c4ccc(=O)n(C)c4)c4ccsc4c3-c3ccc(F)cc3OCCOC)sc2C1 [Compound 164] | < 100 |  |  | A (percent of modification of PIK3CA protein ≥75%) | 
C=CC(=O)N1CC(n2cc(-c3nc(-c4ccc5c(c4)CCNC5)c4ccsc4c3-c3cnn(C)c3)cn2)C1 [Compound 90] | > 3000 |  |  | D (percent of modification <25%) | 
C=CC(=O)N1CCn2nc(-c3nc(-c4ccn(C)c(=O)c4)c4ccsc4c3-c3c(F)cc(F)cc3OCCOC)cc2C1C (stereo not shown) [Compound 986] | < 100 |  |  |  | A (percent of modification of PIK3CA protein ≥75%)
C=CC(=O)N1CC[C@H](n2cc(-c3nc(-c4ccc5c(c4)CCN(C)C5)c4ccsc4c3-c3ccc(F)cc3OCCOC)cn2)C1 [Compound 67] | < 100 |  |  | A (percent of modification of PIK3CA protein ≥75%) | 
C=CC(=O)N1CCn2nc(-c3nc(-c4cnnc(N5CCN(C)CC5)c4)c4ccsc4c3-c3c(F)cc(F)cc3OCCOC)cc2C1C (stereo not shown) [Compound 1045] |  | < 100 |  |  | A (percent of modification of PIK3CA protein ≥75%)
C=CC(=O)N1Cc2cc(-c3nc(-c4ccc5nn(C)cc5c4)c4ccsc4c3-c3c(F)cc(F)cc3OC[C@@H](C)O)nn2[C@@H](C)C1 [Compound 572, 1-((S)-2-((S)-7-(2,4-difluoro-6-((R)-2-hydroxypropoxy)phenyl)-4-(2-methyl-2H-indazol-5-yl)thieno[3,2-c]pyridin-6-yl)-7-methyl-6,7-dihydropyrazolo[1,5-a]pyrazin-5(4H)-yl)prop-2-en-1-one] | < 100 |  |  | A (percent of modification of PIK3CA protein ≥75%) | 
C=CC(=O)N1CCn2nc(-c3nc(-c4cnc5c(c4)CN(C(C)C)CC5)c4ccsc4c3-c3c(F)cc(F)cc3OCCOC)cc2C1C (stereo not shown) [Compound 1093] |  | < 100 |  |  | A (percent of modification of PIK3CA protein ≥75%)
C=CC(=O)N1CCn2nc(-c3nc(-c4ccc5oc(C)nc5c4)c4ccsc4c3-c3c(F)cc(F)cc3OC[C@@H](C)O)cc2[C@@H]1C [Compound 655] | < 100 |  |  | A (percent of modification of PIK3CA protein ≥75%) | 

More lines, main results first:

IC50 (pAKT in BT474 cells; Compounds 10-999) [nM] | IC50 (pAKT in BT474 cells; Compounds 1000-1279) [nM] | IC50 (pAKT in BT474 cells; Homo sapiens, BT-474, Compounds 10-999) [nM] | Compound | % of modification [1, 2] | % of modification [1, 3]
< 100 |  |  | C=CC(=O)N1Cc2cc(-c3nc(-c4cnn(CC(C)(C)O)c4)c4ccsc4c3-c3c(F)cc(F)cc3OC(C)C)nn2[C@@H](C)C1 [Compound 493] | A (percent of modification of PIK3CA protein ≥75%) | 
< 100 |  |  | C=CC(=O)N1Cc2cc(-c3nc(-c4cnn(C)c4)c4ccsc4c3-c3c(F)cc(F)cc3OC[C@@H](C)O)nn2C[C@H]1C [Compound 724] | A (percent of modification of PIK3CA protein ≥75%) | 
< 100 |  |  | C=CC(=O)N1CCc2ncc(-c3nc(-c4cnn(C)c4)c4ccsc4c3-c3c(F)cc(F)cc3OCCOC)cc2C1 [Compound 393] | A (percent of modification of PIK3CA protein ≥75%) | 
< 100 |  |  | C=CC(=O)N1Cc2cc(-c3nc(-c4ccc5nn(C)cc5c4)c4ccsc4c3-c3c(F)cc(F)cc3OC)nn2C[C@H]1C [Compound 821] | A (percent of modification of PIK3CA protein ≥75%) | 
< 100 |  |  | C=CC(=O)N1CCn2nc(-c3nc(-c4ccc5c(c4)CNC(=O)C5)c4ccsc4c3-c3c(F)cc(F)cc3OC[C@@H](C)O)cc2[C@H]1C [Compound 896] |  | A (percent of modification of PIK3CA protein ≥75%)
< 100 |  |  | C=CC(=O)N1CCc2nc(-c3nc(-c4ccc(N5CCN(C)CC5)nc4)c4ccsc4c3-c3c(F)cc(F)cc3OCCOC)sc2C1 [Compound 976] |  | A (percent of modification of PIK3CA protein ≥75%)
100 to 1000 |  |  | C=CC(=O)N1CCn2nc(-c3nc(-c4cnc5c(c4)CNC5=O)c4ccsc4c3-c3c(F)cc(F)cc3OCCO)cc2C1C (stereo not shown) [Compound 961] |  | A (percent of modification of PIK3CA protein ≥75%)
> 3000 |  |  | C/C=C/C(=O)N1CC(n2cc(-c3nc(-c4ccc5c(c4)CCNC5)c4ccsc4c3-c3ccc(F)cc3OC)cn2)C1 [Compound 129] | D (percent of modification <25%) | 
 | < 100 |  | C=CC(=O)N1CCc2nc(-c3nc(-c4ccc5c(c4)CNC(=O)C5)c4ccsc4c3-c3c(F)cc(F)cc3OCCOC)sc2C1 [Compound 1070] |  | A (percent of modification of PIK3CA protein ≥75%)
 |  | 100 to 1000 | C=CC(=O)N1CCc2oc(-c3nc(-c4ccc5c(c4)CCNC5)c4ccsc4c3-c3ccc(F)cc3OC)nc2C1 [Compound 112, 1-[2-[7-(4-fluoro-2-methoxy-phenyl)-4-(1,2,3,4-tetrahydroisoquinolin-6-yl)thieno[3,2-c]pyridin-6-yl]-6,7-dihydro-4H-oxazolo[4,5-c]pyridin-5-yl]prop-2-en-1-one] | A (percent of modification of PIK3CA protein ≥75%) | 
